Data as given in US10632106B2, “Methods of cancer treatment with 2-(1′H-Indole-3′-carbonyl)-thiazole-4-carboxylic acid methyl ester” (Ariagen, Inc., priority 2009, dated 2020).

Tests used:
Format in all cases: in vivo
[1] = test system: U14 (mouse cervical cancer) homografts; assay: U14 homograft (syngeneic) growth inhibition in ICR mice; details: ITE 200 mg/kg i.p. once daily
Procedure: (§1) All the procedures related to animal handling, care, and the treatment in the study were performed following guidelines of KeyGen Biotechn Co., Ltd. (Nanjing, China), a contract research organization we hired, based on the guidance of the Association for Assessment and Accreditation of Laboratory Animal Care (AAALAC). Animals were checked for any effects of tumor growth and drug treatment on normal behavior such as mobility, food and water consumption, body weight gain/loss (bodyweights were measured every two days), eye/hair matting, and any other abnormal effect. Death and observed clinical signs were recorded. Individual animals with a tumor volume exceeding 3,000 mm^3 or animals of a group with a mean tumor volume exceeding 2,000 mm^3 were euthanized. In addition, animals showing signs of severe distress and/or pain or losing the capability of accessing adequate food or water were humanely sacrificed.
(§2) Cell lines HCT116, Siha, MFC were cultured in DMEM medium (high glucose) supplemented with 10% fetal bovine serum (FBS), SW116 and T24 in RPMI-1640 medium with 10% FBS, M14 and A375 in DMEM medium (high glucose) with 10% calf serum (CS), SGC7901 and Ketr-3 in RPMI-1640 medium with 10% CS, and CFPAC-1 in IMDM medium with 10% FBS. All of the cells were cultured, in the presence of 100 U/ml penicillin and 100 μg/ml streptomycin, at 37° C. in an atmosphere of 5% CO2 in air. […] The cells growing in an exponential phase were harvested and counted for tumor inoculation. Cell lines 5180 and U14 were maintained in ascites (peritoneal cavity fluid) of mice and were harvested and counted for tumor inoculation. […]
(§3) Tumor volume was measured every two days in two dimensions using a caliper and the volume was calculated with a formula of: V=0.5 a×b^2, where a and b are the long and short diameter (in mm) of a tumor, respectively. […] The TGD was calculated as: TGD=T−C, where T was the time (in days) required for tumors in a drug treated group to reach a predetermined mean tumor volume and C the time (in days) in the control group to reach the same volume. […]

[2] = Mouse cancer model studies of Example 5, all models: animal death; details: any model, entire therapies; with oral gavage of 20 ml/kg water
Procedure: as §1
Each mouse was inoculated subcutaneously in right armpit with about 1×10^6 cells in 0.1 ml of PBS for tumor development. While cells of human in origin were inoculated into female BALB/c nude mice, MFC cells were inoculated into female 615 mice and U14 and 5180 cells into female ICR mice. When a mean tumor volume reached 50 to 150 mm^3 as indicated, the tumor-bearing mice were divided randomly into vehicle control and ITE treatment group. […]

[3] = test system: SGC7901 (human stomach cancer) xenografts; assay: SGC7901 xenograft growth inhibition; details: ITE 100-200 mg/kg i.p. once daily
Procedure: as §1, §2, §3

[4] = test system: MFC (mouse stomach cancer) homografts; assay: MFC homograft (syngeneic) growth inhibition in 615 mice; details: ITE 200-300 mg/kg i.p. once daily
Procedure: as §1, §2, §3

[5] = test system: HCT116 (human colon cancer) xenografts; assay: HCT116 xenograft growth inhibition; details: ITE 100-200 mg/kg i.p. once daily
Procedure: as §1, §2, §3

[6] = test system: A375 (human skin cancer) xenografts; assay: A375 xenograft growth inhibition; details: ITE 100-200 mg/kg i.p. once daily
Procedure: as §1, §2, §3

[7] = end of therapy relative to beginning
[8] = TGI at day 18, TGI=(1−ΔT/ΔC)×100%

Which TGD ([1]; TGD at Vol. 2,000) does the source give for `COC(=O)c1csc(C(=O)c2c[nH]c3ccccc23)n1` [ITE, 2-(1′H-indole-3′-carbonyl)-thiazole-4-carboxylic acid methyl ester] here?
The TGD was 3 days.

What about the “TGI (%)” value ([1]; TGI at day 6, TGI=(1−ΔT/ΔC)×100%) of the same compound?
Its value is 46%.

And the “Weight Loss” value [1, 7]?
Its value is 4%.

What about the “animal death in ITE treatment group” value [2] of the same compound?
Its value is “no single animal death”.

What about the TGD ([3]; TGD at Vol. 1,000) of the same compound?
Its TGD is 4 days.

What about the “TGI (%)” value [3, 8] of the same compound?
Its value is 50%.

And the “Weight Loss” value [3, 7]?
Its value is 12%.

What about the TGD ([4]; TGD at Vol. 2,000) of the same compound?
The TGD was 9 days.

What about the “TGI (%)” value ([4]; TGI at day 10, TGI=(1−ΔT/ΔC)×100%) of the same compound?
Its value is 70%.

And the “Weight Loss” value [4, 7]?
The value was 16%.

And the TGD ([5]; TGD at Vol. 1,000)?
Its TGD is 3 days.

And the “TGI (%)” value [5, 8]?
Its value is 41%.

And the “Weight Loss” value [5, 7]?
Its value is 9%.

What about the TGD ([6]; TGD at Vol. 1,000) of the same compound?
Its TGD is 7 days.

What about the “TGI (%)” value ([6]; TGI at day 16, TGI=(1−ΔT/ΔC)×100%) of the same compound?
Its value is 60%.

And the “Weight Loss” value [6, 7]?
Its value is 18%.
